Results reported in patent publication US12508280B2, “Formulations for improving gut health” (DSM IP ASSETS B.V., priority 2018, dated 2025).

System: cecal microbiota
Assay: Broiler feeding trial, cecal microbiota 16S rRNA sequencing
Format: in vivo, chickens
From the text: Each group was sampled three times (i.e., S1=14 days, S2=28 days, S3=38/42 days) in specific days corresponding to when the feed will be changed along the feeding program.
During each sampling (i.e., S1, S2 and S3) a total of 40 birds/group were humanely euthanized and 9 litter samples will be collected (i.e., 3 samples/group).
DNA extraction from cecal samples: The commercial kit DNeasy PowerSoil kit (Qiagen, Hilden, Germany) has been chosen and applied to all available cecal samples following the manufacturer instructions. DNA yield was measured using a Nanodrop instrument.
16S rRNA gene PCR amplification and sequencing. The V3-V4 hypervariable region of the 16S rRNA gene was PCR-amplified using 341F and 785R primers with Illumina overhang adaptors sequences. Amplicons purification was performed by using AMPure XP Beads magnetic beads (Beckman Coulter, Brea, CA). For the indexed library preparation, the Nextera XT DNA Library Prep Kit (Illumina, San Diego, CA) was used. A further magnetic beads purification step was performed and libraries quantified using the Qubit 3.0 fluorimeter (Invitrogen), then pooled at 4 nM. The library pool was denatured with NaOH 0.2 N and diluted to […]. Sequencing was performed on Illumina MiSeq platform using a 2×250 bp paired end protocol, according to the manufacturer's instructions (Illumina).
Bioinformatics and statistics. Raw sequences were processed using a pipeline combining PANDAseq (Masella et al, 2012) and QIIME2 (Caporaso et al, 201 O; qiime2.org). After chimera sequences removal, high-quality reads were filtered and binned into high-resolution operational taxonomic units (OTUs) according to the taxonomic threshold of 99% through an open-reference strategy performed with dada2 (Callahan et al, 2016). Taxonomy was assigned using the vsearch classifier (Rognes et al, 2016) and SILVA database as reference (Quast et al, 2013). Alpha diversity was measured using Faith PD index and number of observed OTUs. Statistics was performed using R Studio software version 1.0.136 running on R software 3.1.3 (r-project.org/), implemented with the libraries vegan, made4, PMCMR. Beta diversity was estimated by computing weighted UniFrac distances and visualized by Principal Coordinates Analyses (PCoAs). The significance of separation among groups of samples was tested by permutational multivariate analysis of variance using the function adonis of the vegan package. Bacterial phylogenetic groups (genus, family, phylum) showing a minimum relative abundance of 0.5% in at least the 1% of the samples were kept for further analysis and graphical visualization. Compositional differences among group of samples were tested using Kruskal-Wallis test. P values were corrected for multiple comparisons using the Benjamini-Hochberg method.

In the case of `Cc1cc2nc3c(=O)[nH]c(=O)nc-3n(C[C@H](O)[C@H](O)[C@H](O)CO)c2cc1C` [Vitamin B2, riboflavin], the “abundance of family Bacteroidaceae and genus Bacteroides in cecum” value (Group B (50 mg/kg riboflavin), all available time points) is reported as “significantly higher abundances”, the “cecal microbiota structure (beta diversity, UniFrac PCoA)” value (Group B (control diet+50 mg/kg riboflavin) vs groups A and C) is reported as “different longitudinal trajectory” and the “abundance of Bifidobacteriaceae in cecum” value (Group C (100 mg/kg riboflavin), from T1 to T3, significant at T2 and T3) is reported as “progressive increase”. For the same compound, the “cecal species richness (observed OTUs)” value (Group C (control diet+100 mg/kg riboflavin), time points T2 and T3, P<0.0001) was “significant increase in species richness” and the “[Eubacterium] coprostanoligenes group abundance in cecum” value (Groups B and C vs control group A, T2) was “higher abundance”.
